For this data set the following is noted: a range is the spread between reports.

What is called melting point is the temperature, or range, at which the solid turns liquid. `C=CC(=O)NC(C)(C)CC(C)=O` gave a melting point of 55 to 57.5 °C.
For `Cc1ccc(Cl)cc1Cl`, the melting point was -13.5 to -13 °C.
For the compound `CCCCCOC(=O)CCC`, the melting point was -73.2 to -73 °C.
Take `CCn1ccc(NS(=O)(=O)c2ccc(N)cc2)nc1=O`: the melting point was 166 to 167 °C.
Then `O=C(O)c1ccccc1-c1ccc(C(F)(F)F)cc1`, with 169 to 170 °C; and `c1ccc(-c2ccc(-c3ccc(-c4ccccc4)cc3)cc2)cc1`, with 317 to 320 °C; and `CC1CCC2CC1C2(C)C` (stereo not given), with -53 to -50 °C.
Then `Nc1ncccn1`, with 125 to 128 °C; and `CCCCCCCCCCCCI`, with -3 to 0.3 °C; and `CNc1ccc([N+](=O)[O-])cc1`, with 152 to 153 °C.
For the compound `CCOS(=O)(=O)c1ccc(C)cc1`, the melting point was 32 to 34.5 °C.
Turning to `CC(=O)Nc1cccc(C(F)(F)F)c1`, the melting point is 104 to 105 °C.
Next, `OCC(O)COc1ccc(Cl)cc1` (stereo not given): 78 to 80 °C.
Next, `O=C(O)COc1ccccc1Cl`: 148 to 150 °C.
Then `O=C(O)C1CSCN1` (stereo not given), with 195 to 196 °C; and `O=C(O)c1ccccc1Nc1ccccc1`, with 184 to 187 °C; and `c1ccc2c(c1)CCO2`, with -21.5 to -21 °C.
In the case of `CC(C)(C)c1ccc(N)cc1`, the melting point was 15 to 17 °C.
Next, `O=C1c2ccccc2CCc2ccccc21`: 30 to 33 °C.
Next, `N#CCCc1ccccc1`: -2 to -1 °C.
Then `ClC1=C(Cl)C2(Cl)C3C(Cl)C=CC3C1(Cl)C2(Cl)Cl` (stereo not given), with 95 to 95.5 °C.
Consider `CC(C)CN`, for which the melting point is -87 to -85 °C.
Next, `Cc1ccc([N+](=O)[O-])cc1C`: 29 to 31 °C; `C=CC(=O)O`: 12.5 to 13.5 °C; `O=c1cn[nH]c(=O)[nH]1`: 274 to 276 °C.
Then `Brc1ccccc1I`, with 9.5 to 10 °C.
Next, `CCCCCCCCCCCCCCC(C)O` (stereo not given): 44 to 47 °C; `CCNc1ccc([N+](=O)[O-])cc1`: 96 to 97 °C; `C=C(C)Cl`: -138 to -137 °C.
In the case of `COc1cccc(C(=O)NN)c1`, the melting point was 92 to 94 °C.
Then `OCc1cccnc1`, with -7 to -6.5 °C; and `O=C1OC(=O)C2C1C1(Cl)C(Cl)=C(Cl)C2(Cl)C1(Cl)Cl` (stereo not given), with 233 to 237 °C.
Next, `O=Cc1ccc(CO)o1`: 31.5 to 34 °C; `Nc1ccc(F)cc1F`: -8 to -7.5 °C.
Then `CCNC(=O)C(=O)NCC`, with 175 to 180 °C; and `NC(=O)c1ccc(C(F)(F)F)cc1`, with 184 to 185 °C.
Take `CCCC(=O)OCCC(C)C`: the melting point was -73.2 to -73 °C.
Then `N#CN`, with 44 to 45.6 °C.
Next, `CCS(=O)(=O)CC`: 72 to 73.5 °C; `Cc1ccc(C(=O)O)c(O)c1`: 177 to 178 °C.
With `COC(=O)c1ccc(C=O)cc1`, the melting point is 60 to 61 °C.
In turn, `COc1ccc2ccccc2c1C=O` yielded a melting point of 83 to 84 °C.
Next, `Oc1ccc(Cc2ccccc2)cc1`: 83 to 84 °C.
Then `CCOC(=O)c1cc([N+](=O)[O-])cc([N+](=O)[O-])c1`, with 92 to 94 °C; and `Cc1c(C)c(C)c(CCl)c(C)c1C`, with 82 to 83 °C; and `CN(C)C(=O)Nc1ccccc1`, with 132 to 134 °C.
`O=C1C=C(Cl)C(=O)C=C1Cl` came in with a melting point of 160 to 162 °C.
`O=C(O)Cc1ccc(O)c(O)c1`: the melting point lay within 128 to 129 °C.
As to `CCCCCCCCCCCC(=O)O`, the melting point was in the range of 43.2 to 45 °C.
On to `Brc1ccc(Br)c2ccccc12`, for which the melting point lay in the range of 81 to 83 °C.
In turn, `N#CCc1cccc2ccccc12` displayed a melting point of 32.5 to 34 °C.
Then `CCOC(=O)c1ccco1`, with 34 to 34.5 °C; and `CCCCCCCCCC(=O)Cl`, with -35 to -34.5 °C; and `O=C(O)c1cc(F)c(F)cc1F`, with 98 to 100 °C.
`OCc1cc(Br)ccc1O` yielded a melting point of 109 to 113 °C.
With `C=CCSCC=C`, the melting point is -85 to -83 °C.
The compound `COC(=O)c1cc(Cl)ccc1O` showed a melting point of 46 to 50 °C.
Then `CC(=O)c1ccc(Br)cc1`, with 50.5 to 51 °C; and `c1ccc(P(CCCP(c2ccccc2)c2ccccc2)c2ccccc2)cc1`, with 60 to 61 °C; and `CC(C)(C)c1ccc(Br)cc1`, with 16 to 19 °C.
Next, `Cc1cccc(C)c1`: -48 to -47 °C; `O=[N+]([O-])c1cccc(S(=O)(=O)Cl)c1`: 60.9 to 61 °C; `COc1ccc(C(=O)c2ccccc2)cc1`: 61.5 to 62 °C.
Next, `CC(C)(C)c1ccccc1O`: -7 to -6.8 °C.
As for `O=C(O)c1ccccc1C(F)(F)F`, the melting point lay within 109 to 111 °C.
`Fc1cccc2ccccc12`: the melting point is -13 to -9 °C.
Then `CCCCCCCCCCBr`, with -30 to -29 °C; and `Oc1ccc(O)cc1`, with 170 to 175 °C.
Next, `CCc1ccc(C(=O)O)cc1`: 112 to 113 °C; `Cc1cccc(-c2ccccc2)c1`: 4.5 to 5 °C.
Next, `CCCCCCCCCCCCCCCCCCBr`: 28 to 28.2 °C.
In the case of `O=C1CCN(c2ccccc2)N1`, the melting point was 122 to 126 °C.
Then `Cc1cc(Br)ccc1Br`, with 5 to 6 °C.
For the compound `O=C(O)CCCCCCCCCCCCCCCCCCC(=O)O`, the melting point lay in the range of 126 to 127 °C.
`CCCCCCCCCCCCCCCCCCCCCCCCCCCCCCCCCCCCCCCC` registered a melting point of 81 to 82 °C.
Next, `O=C(O)CCc1ccc(O)cc1`: 129 to 131 °C; `O=C(O)C=Cc1ccccc1C(F)(F)F`: 202 to 206 °C.
Next, `CNC1=Nc2ccc(Cl)cc2C(c2ccccc2)=[N+]([O-])C1`: 236 °C; `O=Cc1c(O)ccc2ccccc12`: 79 to 83 °C; `Clc1ccc(Cl)cc1`: 52.1 to 55 °C.
On to `CC12C=CC(=O)C=C1CCC1C2C(=O)CC2(C)C1CCC2(O)C(=O)CO` (stereo not given), for which the melting point lay in the range of 234 to 237 °C.
In turn, `c1ccc(CCc2ccccc2)cc1` yielded a melting point of 51 to 55 °C.
Take `COCC(=O)O`: the melting point was in the range of 7.7 to 8 °C.
Then `Cc1cccc(O)c1C`, with 71.5 to 75 °C.
Then `C=CCC1CCCC1`, with -111 °C.
Next, `CC12CCC3C(CCC4CC(OCc5ccccc5)CCC43C)C1CCC2=O` (stereo not given): 216 to 220 °C.
For the compound `CCCCCCCC1CCCCC1`, the melting point was -31 to -30 °C.
Consider `c1ccc2cc3c(ccc4ccccc43)cc2c1`, for which the melting point lay in the range of 158 to 160 °C.
Next, `CCOc1ccc(NC(C)=O)cc1`: 134 to 138 °C.
Next, `ClCC(Cl)(Cl)Cl`: -70.2 to -70 °C; `C=C(C)CC`: -138 to -137 °C; `O=C(Cl)c1ccc(Cl)cc1`: 12 to 16 °C.
Next, `O=C=Nc1ccc(N=C=O)cc1`: 94 to 97.5 °C; `CO`: -98 to -97.5 °C; `N#CCC#N`: 32 to 34 °C.
As for `CCCCS`, the melting point is -116 °C.
Next, `O=C1C(=O)c2ccccc2-c2ccccc21`: 206 to 210 °C.
Next, `c1ccc(C2CCCCC2)cc1`: 5 to 7.3 °C.
Next, `CCC(=O)c1cc(O)ccc1O`: 96.5 to 98 °C; `Nn1cnnc1`: 82.5 to 86 °C.
For `Cc1cccc([N+](=O)[O-])c1`, the melting point lay within 15.5 to 16 °C.
Next, `OCC(F)(F)C(F)(F)C(F)(F)CO`: 78 to 79.5 °C.
Then `c1ccc(Cc2ccccn2)cc1`, with 10 to 12.5 °C.
Then `CCCCCCCCCCCCCCCCCCCCCCC`, with 47.6 to 49 °C.
On to `CC(=O)O`, for which the melting point lay in the range of 16.6 to 17 °C.
Compound `O=[N+]([O-])c1cc(Cl)ccc1O` came in with a melting point of 87 to 89 °C.
Next, `c1ccc2c(c1)cc1ccc3cccc4ccc2c1c34`: 176 to 179 °C; `Nc1ccc(N)c2c1C(=O)c1ccccc1C2=O`: 263 to 268 °C; `COc1cc(OC)cc(C(=O)O)c1`: 184 to 186 °C.
Then `C=Cc1ccc(-c2ccccc2)cc1`, with 116 to 119 °C; and `O=Cc1ccc(Cl)c(Cl)c1`, with 43 to 44 °C; and `CC(C)c1ccc2ccccc2c1`, with 14 to 14.5 °C.
`CCCCCCC(C)C`: the melting point was -80.3 to -80 °C.
Next, `CCCc1ccc(O)cc1`: 21 to 22 °C; `O=C(O)c1ccccc1C(=O)c1ccccc1`: 127 to 129 °C; `CCCCCCCCC(=O)Cl`: -61 to -60.5 °C.
In turn, `c1cc(-c2ccncc2)ccn1` came in with a melting point of 111 to 113 °C.
On to `CC(C)(C)CC(=O)O`, for which the melting point lay in the range of 6 to 6.5 °C.
Then `CCOCCOCCOCC`, with -45 to -44 °C; and `O=C(O)c1cccc(Cl)c1Cl`, with 168 to 169 °C.
`CN(C)c1ccc(Cc2ccc(N(C)C)cc2)cc1` yielded a melting point of 87 to 91.5 °C.
`N#Cc1ccc(C#N)cc1` returned a melting point of 224 to 226 °C.
As to `CC(C)(c1ccc(O)cc1)c1ccc(O)cc1`, the melting point is 153 to 156 °C.
Next, `Nc1cc([N+](=O)[O-])cc([N+](=O)[O-])c1`: 161 to 163 °C.
Then `N#Cc1ccc([N+](=O)[O-])cc1`, with 145 to 149 °C.
Then `N#Cc1ccccc1`, with -13 to -12.7 °C; and `Cc1ccc(C(C)C)c(O)c1`, with 49 to 51.5 °C.
In the case of `CC`, the melting point was -183 °C.
Next, `CN(C)c1cccc2c(S(N)(=O)=O)cccc12`: 220 °C.
Then `Clc1cccnc1Cl`, with 66 to 67 °C; and `CCOC(=O)c1ccccc1[N+](=O)[O-]`, with 28 to 30 °C; and `CCCCCCCCCCCCCCCCCCC(=O)O`, with 69 to 69.4 °C.
Then `CCCCCCCCC(=O)CCCCCCCC`, with 52 to 53 °C; and `O=C1CCC(=O)N1`, with 124 to 126 °C.
In the case of `CCCCCCCCCCCCCCCCCCCC(=O)O`, the melting point lay within 75 to 75.4 °C.

The values above are taken from a melting point compilation (Tetko et al.).
